One assay addresses 5-HT1A receptor (Homo sapiens (Human), UniProt P08908). Briefly: 5-HT1A receptor competition binding assay (SPA, [3H]-8-OH-DPAT). The conditions noted are these: membranes of CHO cells expressing 5-HT1A receptors; radioligand [3H]-8-OH-DPAT 0.15-0.2 nM. The text has this:
(§1) Assays that were used to measure affinity of the compounds of the present invention for 5-HT1A and 5-HT1B receptors are described in J. Recept Signal Transduct. Res. 22:483-495 (2002) and Naunyn-Schmiedeberg's Arch Pharmacol. 356:328-334 (1997) and incorporated by reference herein. These assays were be used with some modifications:
(§2) For the binding assay stably transfected chinese hamster ovary (CHO) cell lines expressing 5-HT1A receptors or 5-HT1B receptors were harvested by centrifugation at 300×g for 10 min and resuspended in 10 mM Tris-HCl, 5 mM EDTA at pH 7.4. The cells were pooled, recentrifuged and resuspended before homogenisation using a Dounce homogeniser (“type B”). Cell membranes were centrifuged at 48 000×g for 10 min and then resuspended in harvesting buffer using an Ultra-Turrax T8 (IKA Labortechnik, Germany), aliquots were stored frozen in −70° C.
Frozen membrane preparations were thawed, homogenized with an Ultra-Turrax and mixed with SPA beads (YSI coated WGA, GE Healthcare/Amersham, Buckinghamshire, UK) in assay buffer containing 50 mM Tris-Base, 4 mM MgCl2, 4 mM CaCl2 (only 5-HT1B), 1 mM EDTA, and adjusted to pH 7.4 with HCl. […] The binding assays were performed in 384-well plates in a final volume of 90 μL/well with the following additions: 9 μL binding buffer; 1 μL compound/DMSO/nonspecific; 20 μL radioligand; and 60 μL beads/membrane mixture. Non-specific binding was defined by using 10 μM WAY100635 for 5-HT1A and 10 μM Methiothepin for 5-HT1B. The assay plates were incubated for 4 hours where after the plates are counted in a Wallac 1450 Microbeta Trilux counter (PerkinElmer LifeScience, US) or similar. Data from the experiments were analyzed using a four parameter logistic equation as follows: Y=Bottom+(Top-Bottom)/1+10^(LogEC50-X)nH.

A further assay concerns the target 5-HT1B receptor (Homo sapiens (Human), UniProt P28222). Briefly: 5-HT1B receptor competition binding assay (SPA, [3H]-GR125743). The following applies: membranes of CHO cells expressing 5-HT1B receptors; radioligand [3H]-GR125743 0.15-0.2 nM.
Description: as §1, §2
Frozen membrane preparations were thawed, homogenized with an Ultra-Turrax and mixed with SPA beads (YSI coated WGA, GE Healthcare/Amersham, Buckinghamshire, UK) in assay buffer containing 50 mM Tris-Base, 4 mM MgCl2, 4 mM CaCl2 (only 5-HT1B), 1 mM EDTA, and adjusted to pH 7.4 with HCl. The beads/membrane solution, final concentration 100 pM receptors for 5-HT1A, 300 pM receptors for 5-HT1B and 0.5 mg SPA beads/well, was pre-incubated in room temperature with stirring for 30-60 min. […] Five (log interval, 10 μM to 1 nM, final concentration) or ten serial dilutions (½-log interval, 10 μM to 0.32 nM, final concentration) of compounds were prepared in DMSO from 10 mM stock solutions. The binding assays were performed in 384-well plates in a final volume of 90 μL/well with the following additions: 9 μL binding buffer; 1 μL compound/DMSO/nonspecific; 20 μL radioligand; and 60 μL beads/membrane mixture. Non-specific binding was defined by using 10 μM WAY100635 for 5-HT1A and 10 μM Methiothepin for 5-HT1B. The assay plates were incubated for 4 hours where after the plates are counted in a Wallac 1450 Microbeta Trilux counter (PerkinElmer LifeScience, US) or similar. Data from the experiments were analyzed using a four parameter logistic equation as follows: Y=Bottom+(Top-Bottom)/1+10^(LogEC50-X)nH.
• Jerning E., Rosqvist S., Mohell N. (2002) NAD-299 antagonises 5-HT-stimulated and Spiperone-inhibited [^35S]GTPγS binding in cloned 5-HT1A receptors. J Recept Signal Transduct Res 22:483-495. • Doménech T., Beleta J., Palacios J. M. (1997) Characterization of human serotonin 1D and 1B receptors using [^3H]-GR-125743, a novel radiolabelled serotonin 5HT1D/1B receptor antagonist. Naunyn-Schmiedeberg's Arch Pharmacol 356:328-334.

This is an account of results in US8859534B2, “2-carboxamide-7-piperazinyl-benzofuran derivatives” (AstraZeneca AB, priority 2009, dated 2014).

Chain of 5-HT1A receptor (P08908 whole entry): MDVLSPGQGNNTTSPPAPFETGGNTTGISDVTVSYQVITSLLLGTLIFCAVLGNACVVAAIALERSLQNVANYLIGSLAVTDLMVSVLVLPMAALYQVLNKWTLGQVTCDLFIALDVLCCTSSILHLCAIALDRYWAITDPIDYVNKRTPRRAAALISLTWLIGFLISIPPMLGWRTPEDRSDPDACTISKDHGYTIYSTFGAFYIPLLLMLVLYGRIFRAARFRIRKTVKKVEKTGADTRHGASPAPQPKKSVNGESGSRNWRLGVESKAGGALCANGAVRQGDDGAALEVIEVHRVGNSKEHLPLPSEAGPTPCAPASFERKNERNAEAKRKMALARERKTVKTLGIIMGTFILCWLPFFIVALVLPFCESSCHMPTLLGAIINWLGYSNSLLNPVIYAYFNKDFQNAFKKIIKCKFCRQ
Chain of 5-HT1B receptor (P28222 whole entry): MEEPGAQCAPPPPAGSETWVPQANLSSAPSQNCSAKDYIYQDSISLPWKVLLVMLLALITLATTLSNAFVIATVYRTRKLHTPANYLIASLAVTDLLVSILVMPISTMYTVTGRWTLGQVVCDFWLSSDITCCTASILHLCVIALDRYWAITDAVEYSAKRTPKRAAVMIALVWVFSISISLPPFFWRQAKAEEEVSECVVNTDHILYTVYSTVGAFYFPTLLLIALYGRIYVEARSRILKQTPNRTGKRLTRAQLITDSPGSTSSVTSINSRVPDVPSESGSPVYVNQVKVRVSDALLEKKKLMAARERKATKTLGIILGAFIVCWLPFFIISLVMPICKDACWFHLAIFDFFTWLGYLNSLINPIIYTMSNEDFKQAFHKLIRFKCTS

Take `N#Cc1ccc(CNC(=O)c2cc3cccc(N4CCN(CCc5ccccn5)CC4)c3o2)cn1` [Example 20, N-((6-Cyanopyridin-3-yl)methyl)-7-(4-(2-(pyridin-2-yl)ethyl)piperazin-1-yl)benzofuran-2-carboxamide]: the Ki at 5-HT1A receptor worked out at 1.1 nM; on 5-HT1B receptor, 7.6 nM.

Turning to `CN(Cc1cccnc1)C(=O)c1cc2cccc(N3CCN(CCc4ccccn4)CC3)c2o1` [Example 21, N-Methyl-7-(4-(2-(pyridin-2-yl)ethyl)piperazin-1-yl)-N-(pyridin-3-ylmethyl)benzofuran-2-carboxamide], the Ki is 2.6 nM at 5-HT1A receptor and 63 nM at 5-HT1B receptor.

For the compound `N#Cc1cccc(CNC(=O)c2cc3cccc(N4CCN(CCc5ccccn5)CC4)c3o2)c1` [Example 22, N-(3-Cyanobenzyl)-7-(4-(2-(pyridin-2-yl)ethyl)piperazin-1-yl)benzofuran-2-carboxamide], the Ki was found to be 0.91 nM at 5-HT1A receptor and 9.1 nM at 5-HT1B receptor.

For the compound `O=C(c1cc2cccc(N3CCN(CCc4ccccn4)CC3)c2o1)N1CCN(c2nccs2)CC1` [Example 23, (7-(4-(2-(Pyridin-2-yl)ethyl)piperazin-1-yl)benzofuran-2-yl)(4-(thiazol-2-yl)piperazin-1-yl)methanone], the Ki is 4.2 nM at 5-HT1A receptor and 1.4 nM on 5-HT1B receptor.

With `COc1cccnc1N1CCC(NC(=O)c2cc3cccc(N4CCN(CCc5ccccn5)CC4)c3o2)CC1` [Example 24, N-(1-(3-Methoxypyridin-2-yl)piperidin-4-yl)-7-(4-(2-(pyridin-2-yl)ethyl)piperazin-1-yl)benzofuran-2-carboxamide], the values for the Ki at 5-HT1A receptor and at 5-HT1B receptor were 0.42 nM and 0.56 nM, respectively.

Regarding `CN(Cc1ccccn1)C(=O)c1cc2cccc(N3CCN(CCc4ccccn4)CC3)c2o1` [Example 25, N-Methyl-7-(4-(2-(pyridin-2-yl)ethyl)piperazin-1-yl)-N-(pyridin-2-ylmethyl)benzofuran-2-carboxamide], the Ki stood at 2.9 nM on 5-HT1A receptor and 31 nM on 5-HT1B receptor.

For `COc1cccc(CNC(=O)c2cc3cccc(N4CCN(CCc5ccccn5)CC4)c3o2)c1` [Example 26, N-(3-Methoxybenzyl)-7-(4-(2-(pyridin-2-yl)ethyl)piperazin-1-yl)benzofuran-2-carboxamide], the Ki is 0.91 nM at 5-HT1A receptor and 2.3 nM at 5-HT1B receptor.

Regarding `O=C(NC1(c2ccccn2)CC1)c1cc2cccc(N3CCN(CCc4ccccn4)CC3)c2o1` [Example 27, N-(1-(Pyridin-2-yl)cyclopropyl)-7-(4-(2-(pyridin-2-yl)ethyl)piperazin-1-yl)benzofuran-2-carboxamide], the Ki on 5-HT1A receptor stood at 2.3 nM; on 5-HT1B receptor, 35 nM.

Turning to `COc1ccc(CNC(=O)c2cc3cccc(N4CCN(CCc5ccccn5)CC4)c3o2)cc1` [Example 28, N-(4-Methoxybenzyl)-7-(4-(2-(pyridin-2-yl)ethyl)piperazin-1-yl)benzofuran-2-carboxamide], the figures for the Ki on 5-HT1A receptor and at 5-HT1B receptor were 0.85 nM and 1 nM, respectively.

Take `Cc1ccnc(CCNC(=O)c2cc3cccc(N4CCN(CCc5ccccn5)CC4)c3o2)n1` [Example 29, N-(2-(4-Methylpyrimidin-2-yl)ethyl)-7-(4-(2-(pyridin-2-yl)ethyl)piperazin-1-yl)benzofuran-2-carboxamide]: the figures for the Ki at 5-HT1A receptor and at 5-HT1B receptor were 2 nM and 19 nM, respectively.

With `O=C(NCC1CCOCC1)c1cc2cccc(N3CCN(CCc4ccccn4)CC3)c2o1` [Example 31, 7-(4-(2-(Pyridin-2-yl)ethyl)piperazin-1-yl)-N-((tetrahydro-2H-pyran-4-yl)methyl)benzofuran-2-carboxamide], the Ki at 5-HT1A receptor is 1.5 nM; on 5-HT1B receptor it was 50 nM.

On to `CC(NC(=O)c1cc2cccc(N3CCN(CCc4ccccn4)CC3)c2o1)c1ccnn1C` (stereo not shown) [Example 32, N-(1-(1-Methyl-1H-pyrazol-5-yl)ethyl)-7-(4-(2-(pyridin-2-yl)ethyl)piperazin-1-yl)benzofuran-2-carboxamide], for which the Ki on 5-HT1A receptor was determined as 12 nM; on 5-HT1B receptor, 280 nM.

On to `Cc1ccc(C(C)NC(=O)c2cc3cccc(N4CCN(CCc5ccccn5)CC4)c3o2)cn1` (stereo not shown) [Example 33, N-(1-(6-Methylpyridin-3-yl)ethyl)-7-(4-(2-(pyridin-2-yl)ethyl)piperazin-1-yl)benzofuran-2-carboxamide], for which the Ki worked out at 2.1 nM at 5-HT1A receptor and 44 nM at 5-HT1B receptor.

As for `Cc1ncc(CNC(=O)c2cc3cccc(N4CCN(CCc5ccccn5)CC4)c3o2)cn1` [Example 34, N-((2-Methylpyrimidin-5-yl)methyl)-7-(4-(2-(pyridin-2-yl)ethyl)piperazin-1-yl)benzofuran-2-carboxamide], the Ki on 5-HT1A receptor was found to be 3.8 nM; on 5-HT1B receptor, 38 nM.

For the compound `O=C(NCc1cccnc1)c1cc2cccc(N3CCN(CCc4ccccn4)CC3)c2o1` [Example 35, 7-(4-(2-(Pyridin-2-yl)ethyl)piperazin-1-yl)-N-(pyridin-3-ylmethyl)benzofuran-2-carboxamide], the Ki at 5-HT1A receptor came to 2 nM; on 5-HT1B receptor it was 34 nM.

In the case of `O=C(c1cc2cccc(N3CCN(CCc4ccccn4)CC3)c2o1)N1CC(Oc2cccnc2)C1` [Example 36, (7-(4-(2-(Pyridin-2-yl)ethyl)piperazin-1-yl)benzofuran-2-yl)(3-(pyridin-3-yloxy)azetidin-1-yl)methanone], the results for the Ki at 5-HT1A receptor and at 5-HT1B receptor were 1.9 nM and 0.46 nM, respectively.

`O=C(NCc1cccc(O)c1)c1cc2cccc(N3CCN(CCc4ccccn4)CC3)c2o1` [Example 37, N-(3-Hydroxybenzyl)-7-(4-(2-(pyridin-2-yl)ethyl)piperazin-1-yl)benzofuran-2-carboxamide]: the Ki on 5-HT1A receptor turned out to be 0.23 nM; at 5-HT1B receptor, 3.5 nM.

In the case of `CC(=O)N1CCc2cc(CCN3CCN(c4cccc5cc(C(=O)N(C)C)oc45)CC3)ccc21` [Example 38, 7-(4-(2-(1-Acetylindolin-5-yl)ethyl)piperazin-1-yl)-N,N-dimethylbenzofuran-2-carboxamide], the Ki at 5-HT1A receptor turned out to be 0.064 nM; at 5-HT1B receptor, 1.6 nM.

Regarding `Cc1ccc(CCN2CCN(c3cccc4cc(C(=O)N(C)C)oc34)CC2)nc1` [Example 40, N,N-dimethyl-7-(4-(2-(5-methylpyridin-2-yl)ethyl)piperazin-1-yl)benzofuran-2-carboxamide], the Ki on 5-HT1A receptor is 0.14 nM; on 5-HT1B receptor, 1.3 nM.

As for `CN(C)C(=O)c1cc2cccc(N3CCN(CCc4cccc(C(F)(F)F)n4)CC3)c2o1` [Example 42, N,N-dimethyl-7-(4-(2-(6-(trifluoromethyl)pyridin-2-yl)ethyl)piperazin-1-yl)benzofuran-2-carboxamide], the Ki stood at 0.64 nM at 5-HT1A receptor and 7 nM on 5-HT1B receptor.

`CC(=O)c1ccc(CCN2CCN(c3cccc4cc(C(=O)N(C)C)oc34)CC2)nc1` [Example 43, 7-(4-(2-(5-Acetylpyridin-2-yl)ethyl)piperazin-1-yl)-N,N-dimethylbenzofuran-2-carboxamide]: the values for the Ki at 5-HT1A receptor and on 5-HT1B receptor were 0.33 nM and 2 nM, respectively.

In the case of `CC(=O)Nc1ccc(CCN2CCN(c3cccc4cc(C(=O)N(C)C)oc34)CC2)nc1` [Example 44, 7-(4-(2-(5-Acetamidopyridin-2-yl)ethyl)piperazin-1-yl)-N,N-dimethylbenzofuran-2-carboxamide], the Ki on 5-HT1A receptor is 3.7 nM; on 5-HT1B receptor, 20 nM.

`COc1cccc(CCN2CCN(c3cccc4cc(C(=O)N(C)C)oc34)CC2)n1` [Example 46, 7-(4-(2-(6-Methoxypyridin-2-yl)ethyl)piperazin-1-yl)-N,N-dimethylbenzofuran-2-carboxamide]: the Ki amounted to 1.3 nM on 5-HT1A receptor and 1.4 nM on 5-HT1B receptor.

In general, Ki refers to the dissociation constant of the complex between target and ligand, obtained from inhibition or displacement. Higher therefore signals weaker binding.
